Reference: patent US9051317B2, “Azaindoles as respiratory syncytial virus antiviral agents” (JANSSEN SCIENCES IRELAND UC, priority 2010, dated 2015)
Read-outs that look alike come from different tables or passages of the source.

Assays:
rgRSV224 virus = experiment: microbe, parasite or virus in culture; type: cell-based, respiratory syncytial virus (RSV); settings: for EC50: read-out: WT activity EC50; for SI CC50/EC50: selectivity index, CC50 (HeLa cytotoxicity) / EC50 (rgRSV224)
Procedure: (§1) Black 96-well clear-bottom microtiter plates (Corning, Amsterdam, The Netherlands) were filled in duplicate using a customized robot system with serial 4-fold dilutions of compound in a final volume of 50 μl culture medium [RPMI medium without phenol red, 10% FBS, 0.04% gentamycin (50 mg/mL) and 0.5% DMSO]. Then, 100 μl of a HeLa cell suspension (5×10^4 cells/mL) in culture medium was added to each well followed by the addition of 50 μl rgRSV224 (MOI=0.02) virus in culture medium using a multidrop dispenser (Thermo Scientific, Erembodegem, Belgium). rgRSV224 virus is an engineered virus that includes an additional GFP gene (Hallak et al, 2000) and was in-licensed from the NIH (Bethesda, Md., USA). Medium, virus- and mock-infected controls were included in each test. Cells were incubated at 37° C. in a 5% CO2 atmosphere. Three days post-virus exposure, viral replication was quantified by measuring GFP expression in the cells by a MSM laser microscope (Tibotec, Beerse, Belgium). The EC50 was defined as the 50% inhibitory concentration for GFP expression. In parallel, compounds were incubated for three days in a set of white 96-well microtitier plates (Corning) and the cytotoxicity of compounds in HeLa cells was determined by measuring the ATP content of the cells using the ATPlite kit (PerkinElmer, Zaventem, Belgium) according to the manufacturer's instructions. The CC50 was defined as the 50% concentration for cytotoxicity.

[1] = Cytotoxicity in HeLa cells, ATP content (ATPlite kit); type: cell-based; settings: human, Table 1, three days incubation, read-out: Toxicity CC50
Procedure: as §1

[2] = human respiratory syncytial virus, HeLa, 72 h
[3] = Table 2, rgRSV224 in HeLa cells, MOI 0.02, three days post-virus exposure, GFP expression

| Compound | EC50 (rgRSV224 virus; [2]) | CC50 at 3 days [1] | SI CC50/EC50 (rgRSV224 virus; Table 2) | EC50 (rgRSV224 virus; [3]) | SI CC50/EC50 (rgRSV224 virus; Table 3) |
| --- | --- | --- | --- | --- | --- |
| O=c1n(Cc2cc3cnccc3n2CCCCO)c2cnccc2n1C1CC1 [Compound P1, 1-Cyclopropyl-3-{[1-(4-hydroxybutyl)-1H-pyrrolo[3,2-c]pyridin-2-yl]methyl}-1,3-dihydro-2H-imidazo[4,5-c]pyridin-2-one] | 1.05 nM | > 98400 nM |  |  |  |
| O=c1n(Cc2cc3nc(Cl)ccc3n2CCCCO)c2cnccc2n1C1CC1 [Compound P2, 3-{[5-Chloro-1-(4-hydroxybutyl)-1H-pyrrolo[3,2-b]pyridin-2-yl]methyl}-1-cyclopropyl-1,3-dihydro-2H-imidazo[4,5-c]pyridin-2-one] | 15.6 nM | > 9840 nM |  |  |  |
| CC(C)CCn1c(Cn2c(=O)n(C3CC3)c3ccncc32)cc2ncccc21 [Compound P3, 1-Cyclopropyl-3-{[1-(3-methylbutyl)-1H-pyrrolo[3,2-b]pyridin-2-yl]methyl}-1,3-dihydro-2H-imidazo[4,5-c]pyridin-2-one] | 62.9 nM | 68000 nM |  |  |  |
| O=c1n(Cc2cc3ccncc3n2CCCCO)c2cnccc2n1C1CC1 [Compound P4, 1-Cyclopropyl-3-{[1-(4-hydroxybutyl)-1H-pyrrolo[2,3-c]pyridin-2-yl]methyl}-1,3-dihydro-2H-imidazo[4,5-c]pyridin-2-one] | 129 nM | > 9840 nM |  |  |  |
| O=c1n(Cc2cc3ncccc3n2CCCCO)c2cnccc2n1C1CC1 [Compound P5, 1-Cyclopropyl-3-{[1-(4-hydroxybutyl)-1H-pyrrolo[3,2-b]pyridin-2-yl]methyl}-1,3-dihydro-2H-imidazo[4,5-c]pyridin-2-one] | 160 nM | > 98400 nM |  |  |  |
| COc1ccc2c(cc(Cn3c(=O)n(C4CC4)c4ccncc43)n2CCCCO)n1 [Compound P6, 1-Cyclopropyl-3-{[1-(4-hydroxybutyl)-5-methoxy-1H-pyrrolo[3,2-b]pyridin-2-yl]methyl}-1,3-dihydro-2H-imidazo[4,5-c]pyridin-2-one] | 220 nM | > 9840 nM |  |  |  |
| O=c1n(Cc2cc3nc(O)ccc3n2CCCCO)c2cnccc2n1C1CC1 [Compound P8, 1-Cyclopropyl-3-{[5-hydroxy-1-(4-hydroxybutyl)-1H-pyrrolo[3,2-b]pyridin-2-yl]methyl}-1,3-dihydro-2H-imidazo[4,5-c]pyridin-2-one] | 8460 nM | > 9840 nM |  |  |  |
| CC(C)(C)C(=O)OCCCCn1c(Cn2c(=O)n(C3CC3)c3ccncc32)cc2nc(O)ccc21 [Compound P9, 4-{2-[(1-Cyclopropyl-2-oxo-1,2-dihydro-3H-imidazo[4,5-c]pyridin-3-yl)methyl]-5-hydroxy-1H-pyrrolo[3,2-b]pyridin-1-yl}butyl 2,2-dimethylpropanoate] | > 9840 nM | > 9840 nM |  |  |  |
| O=c1n(Cc2cc3cc(Cl)ncc3n2CCCCF)c2cnccc2n1C1CC1 [Compound P11, 3-((5-chloro-1-(4-fluorobutyl)-1H-pyrrolo[2,3-c]pyridin-2-yl)methyl)-1-cyclopropyl-1H-imidazo[4,5-c]pyridin-2(3H)-one] | 5.33 nM |  | >9387 |  |  |
| O=c1n(Cc2cc3cc(Cl)ncc3n2CCCC(F)(F)F)c2cnccc2n1C1CC1 [Compound P12] |  |  | >10526 | 2.38 nM |  |
| O=c1n(Cc2cc3cc(Cl)ncc3n2CCCC(F)(F)F)c2cnccc2n1CC(F)(F)F [Compound P13] |  |  | >106591 | 0.938 nM |  |
| O=c1n(Cc2cc3cc(Cl)ncc3n2CCCC(F)(F)F)c2cc(F)ccc2n1CC(F)(F)F [Compound P14] |  |  | >5823 | 17.2 nM |  |
| O=c1n(Cc2cc3cc(Cl)ncc3n2CCCCF)c2cnccc2n1CC(F)(F)F [Compound P15] |  |  | 51626 | 1.58 nM |  |
| O=c1n(Cc2cc3cc(Cl)ncc3n2CCCC(F)(F)F)c2cc(F)ccc2n1C1CC1 [Compound P16] |  |  | >2730 | 39.8 nM |  |
| CS(=O)(=O)CCCn1c(Cn2c(=O)n(C3CC3)c3ccncc32)cc2cnccc21 [Compound P18] |  |  | >102089 | 0.98 nM |  |
| O=c1n(Cc2cc3cnccc3n2CCCCF)c2cnccc2n1C1CC1 [Compound P19] |  |  | >186574 | 0.536 nM |  |
| CC(C)CCn1c(Cn2c(=O)n(C3CC3)c3ccncc32)cc2cnccc21 [Compound P20] |  |  | 294002 | 0.28 nM |  |
| O=c1n(Cc2cc3cnccc3n2CCCC(F)(F)F)c2cnccc2n1C1CC1 [Compound P21] |  |  | >405210 | 0.247 nM |  |
| O=c1n(Cc2c(Cl)c3cnccc3n2CCCC(F)(F)F)c2cnccc2n1C1CC1 [Compound P22] |  |  | >20007 | 5 nM |  |
| O=c1n(Cc2c(F)c3cnccc3n2CCCC(F)(F)F)c2cnccc2n1C1CC1 [Compound P23] |  |  | >3416 | 29.3 nM |  |
| O=c1n(Cc2cc3cnccc3n2CCCC(F)(F)F)c2c(F)nccc2n1C1CC1 [Compound P24] | 0.17 nM |  |  |  | >589061 |
| Cc1c(Cn2c(=O)n(C3CC3)c3ccncc32)n(CCCC(F)(F)F)c2ccncc12 [Compound P25] |  |  | >73885 | 1.35 nM |  |

| Compound | EC50 (rgRSV224 virus; [2]) | CC50 at 3 days [1] | SI CC50/EC50 (rgRSV224 virus; Table 2) | EC50 (rgRSV224 virus; [3]) | SI CC50/EC50 (rgRSV224 virus; Table 3) |
| --- | --- | --- | --- | --- | --- |
| O=c1n(Cc2c(I)c3cnccc3n2CCCC(F)(F)F)c2cnccc2n1C1CC1 [Compound P26] |  |  | 21638 | 2.35 nM |  |
| CS(=O)(=O)CCCn1c(Cn2c(=O)n(CC(F)(F)F)c3ccc(F)cc32)c(Br)c2cnccc21 [Compound P29] |  |  | 307 | 63.5 nM |  |
| CS(=O)(=O)CCCn1c(Cn2c(=O)n(CC(F)(F)F)c3ccc(F)cc32)cc2cnccc21 [Compound P30] |  |  | >162986 | 0.614 nM |  |
| CC(C)CCn1c(Cn2c(=O)n(C3CC3)c3ccncc32)cc2nc(Cl)ccc21 [Compound P32] |  |  | >1286 | 7.77 nM |  |
| CS(=O)(=O)CCCn1c(Cn2c(=O)n(C3CC3)c3ccncc32)cc2nc(Cl)ccc21 [Compound P33] |  |  | >17372 | 5.76 nM |  |
| CC(C)CCn1c(Cn2c(=O)n(C3COC3)c3ccncc32)cc2nc(Cl)ccc21 [Compound P34] |  |  | >2856 | 35 nM |  |
| CS(=O)(=O)CCCn1c(Cn2c(=O)n(C3COC3)c3ccncc32)cc2nc(Cl)ccc21 [Compound P36] |  |  | >14674 | 6.81 nM |  |
| CS(=O)(=O)CCCn1c(Cn2c(=O)n(C3CC3)c3ccc(F)cc32)cc2nc(Cl)ccc21 [Compound P37] |  |  | >4479 | 22.3 nM |  |
| CC(C)CCn1c(Cn2c(=O)n(C3CC3)c3ccc(F)cc32)cc2nc(Cl)ccc21 [Compound P38] |  |  | 1510 | 32.8 nM |  |
| CC(C)CCn1c(Cn2c(=O)n(C3CC3)c3ccccc32)cc2nc(Cl)ccc21 [Compound P39] |  |  | >388 | 129 nM |  |
| O=c1n(Cc2cc3nc(Cl)ccc3n2CCCC(F)(F)F)c2cnccc2n1C1CC1 [Compound P40] |  |  | >37045 | 2.7 nM |  |
| O=c1n(Cc2cc3nc(Cl)ccc3n2CCCCF)c2cnccc2n1C1CC1 [Compound P42, 3-((5-chloro-1-(4-fluorobutyl)-1H-pyrrolo[3,2-b]pyridin-2-yl)methyl)-1-cyclopropyl-1H-imidazo[4,5-c]pyridin-2(3H)-one] | 2.84 nM |  | 17031 |  |  |
| O=c1n(Cc2cc3nc(Cl)ccc3n2CCCC(F)(F)F)c2ccccc2n1C1CC1 [Compound P43] |  |  | 1291 | 69.2 nM |  |
| O=c1n(Cc2cc3nc(Cl)ccc3n2CCCCF)c2cnc(Cl)cc2n1C1CC1 [Compound P44] | 17.9 nM |  |  |  | 620 |
| O=c1n(Cc2cc3ncccc3n2CCCCF)c2cnccc2n1C1CC1 [Compound P45] |  |  | >2332 | 42.9 nM |  |
| O=c1n(Cc2cc3nc(C(F)(F)F)ccc3n2CCCCF)c2cnccc2n1C1CC1 [Compound P46] |  |  | >755 | 132 nM |  |
| O=c1n(Cc2cc3nc(Cl)ccc3n2CCCCF)c2cc(F)ccc2n1CC(F)(F)F [Compound P47] |  |  | >720 | 138 nM |  |
| O=c1n(Cc2cc3nc(Cl)ccc3n2CCCCF)c2cnccc2n1CC(F)(F)F [Compound P48] |  |  | 10490 | 7.36 nM |  |
| O=c1n(Cc2cc3nc(Cl)ccc3n2CCCC(F)(F)F)c2cnccc2n1CC(F)(F)F [Compound P49] |  |  | >34306 | 2.1 nM |  |
| O=c1n(Cc2cc3nc(Cl)ccc3n2CCCCO)c2cnccc2n1CC(F)(F)F [Compound P50] |  |  | >4946 | 10.1 nM |  |
| CS(=O)(=O)CCCn1c(Cn2c(=O)n(CC(F)(F)F)c3ccncc32)cc2nc(Cl)ccc21 [Compound P52] |  |  | >119028 | 0.84 nM |  |
| N#CCCCn1c(Cn2c(=O)n(C3CC3)c3ccncc32)cc2nc(Cl)ccc21 [Compound P53] |  |  | >6232 | 15.8 nM |  |
